According to US20120052125A1, “Cholesteryl Sulfate-Containing Composition As A Haemostatic” (DR. SUWELACK SKIN & HEALTH CARE AG, priority 2008, published 2012):

Assays:
porcine whole blood = assay: Sonoclot analysis (clotting time ACT and clot rate) in recalcified porcine whole blood; assay type: biochemical; conditions: for ACT / clot rate: 360 μl porcine whole blood, recalcified with 20 μl 0.2 M calcium chloride, 1.1 mg carrier, SCS as 4% by wt vesicle solution
Excerpt: The haemostatic effect of cholesteryl sulfate as such was investigated using a Sonoclot®Coagulation & Platelet Function Analyzer by Scienco® Inc with regard to the clotting time (ACT) and clot rate. In this case, the ACT value indicates the time until the onset of the first thickening of the blood, which matches the time required by the system for generating a first blood clot. The clot rate indicates the speed with which the clot solidifies, and is there fore a measure for fibrin formation.
For the investigations presently illustrated, different quantities of cholesteryl sulfate in the form of its sodium salt was dissolved in methanol, and aliquots were transferred into the reaction vessels. By evaporating the methanol, the cholesteryl sulfate was precipitated as a layer on the bottom of the reaction vessel. Then 360 μl of porcine citrate blood were put into the reaction vessel, and 20 μl 0.2 M calcium chloride solution were subsequently added for recalcification. Both the time until coagulation (ACT) as well as the clot formation rate were measured with the Sonoclot Analyzer.
In order to show the enhanced effects in blood clotting of the combination of cholesteryl sulphate as a haemostatic agent and a haemostatic carrier material such as collagen the Sonoclot-Test has been carried out according to example 1.
The test condition and materials were in accordance with example 1.
As a carrier material freeze-dried, milled collagen from the company Dr. Suwelack Skin & Health Care AG (SHC) as well as collagen from bovine tendon from the company Sigma Aldrich have been examined in the Sonoclot-Analyzer and compared to cholesteryl sulphate as well as to a combination of the collagen and cholesteryl sulphate (SCS).
For the examination of the collagen carrier material 1.1 mg carrier material were transferred into the reaction vessels containing 360 μl porcine whole blood. 12.5 μl isosmotic saline solution (NaCl) were subsequently admixed and 20 μl 0.2 M calcium chloride solution were subsequently added for recalcification. Both the time until coagulation (ACT) as well as the clot formation rate were measured with the Sonoclot Analyzer. High clot rate indicates fast fibrin formation and thus fast clot formation.
For the examination of the collagen carrier material in combination with cholesteryl sulphate instead of isosmotic saline solution 12.5 μl of a cholesteryl sulphate vesicle solution containing 4% by wt cholesteryl sulphate is admixed with the carrier material.
For the examination of the cholesteryl sulphate a 4% by wt vesicle solution alone was tested accordingly.
The vesicle solution was prepared as described in example 2, Nr. 2 a).

[1] = Solubility of cholesteryl sulfate salts; assay type: physicochemical
[2] = Stability of cholesteryl sulfate salts; assay type: physicochemical

Structure (SMILES) | ACT (porcine whole blood; Experiment 1) [s] | clot rate (porcine whole blood; Experiment 1) | ACT (porcine whole blood; Experiment 2) [s] | clot rate (porcine whole blood; Experiment 2) | effect on coagulation (porcine whole blood; non-activated system, no pre-incubation) | water-solubility [1] | stability compared with sodium cholesteryl sulfate [2] | solubility compared with sodium cholesteryl sulfate ([1]; e.g. in methanol)
CC(C)CCC[C@@H](C)[C@H]1CC[C@H]2[C@@H]3CC=C4C[C@@H](OS(=O)(=O)[O-])CC[C@]4(C)[C@H]3CC[C@]12C.[Na+] [12.5 μl SCS, sodium cholesteryl sulfate] | 90 | 17 | 81 | 29 | coagulation-promoting effect | only small water-solubility |  | 
CC(C)CCC[C@@H](C)[C@H]1CC[C@H]2[C@@H]3CC=C4C[C@@H](OS(=O)(=O)[O-])CC[C@]4(C)[C@H]3CC[C@]12C.[K+] [potassium cholesteryl sulfate] |  |  |  |  |  | only small water-solubility | greater stability | less soluble
